Source: PMC8536627, “Hydrolytic stability of anticancer drugs and one metabolite in the aquatic environment” (Environmental Science and Pollution Research International, 2021)

Assays:
[1] = parameters: method as in Białk-Bielińska et al. [2017]; conditions: ref Białk-Bielińska et al. [2017]; cited from earlier work
physchem = conditions: for Hydrolytic stability in the preliminary test: pH 4, 7 and 9, 50 °C
Procedure: The incubation was performed in the dark, in order to avoid the influence of the photolysis on degradation of the analytes. The water used for the preparation of buffers was autoclaved, all glassware was clean, flushed with methanol, and dried in high temperature. Samples were closed in glass tubes with a sealed cap. The air from above the solution was removed by a nitrogen stream just before capping. In the preliminary test, solutions of single analytes were prepared in each tested pH: 4, 7, and 9, which is required by the OECD guidelines. There was also a blank sample prepared for each pH. Samples in the preliminary test were prepared in two parallel replicates. Moreover, the complete preliminary test was repeated twice. The preliminary test was performed at 50 °C for 5 days. […] In the case of the extended tests, 7 measuring points were provided during the time of the test. Each measuring point was performed in two parallel replicates. […] The test was conducted for 30 days or to 90 % elimination of a compound. Obtained results were used to determine the hydrolysis rate constant (k) using equation: 1 lnCt/C0=kt
The HPLC-UV/Vis technique was applied to determine the level of hydrolytic degradation of the analytes. In the preliminary test, the control and blank samples were analyzed at the beginning and the end of the test. […] In the extended test, the samples collected in the time intervals were analyzed, and peak areas were compared to those obtained at the beginning of the test. This was used to determine the kinetic of this hydrolysis process by using the Equation 1. In general, each analyte was analyzed by a simple HPLC method with UV/Vis detection. Gemini C18 (Phenomenex, USA), 5 μm, 110 Å, 150 mm × 4.6 mm chromatographic column was applied for each method and three different mobile phases were used (water or 0.1 % HCOOH) mixed with the acetonitrile. The conditions applied during the LC-MS analysis with an ion trap detector for the qualitative analysis of the samples collected after the extended tests at 20 and 70 °C are presented in the Table S2.

[2] = parameters: method as in Negreira et al. ([2013b]); conditions: acidification of samples, organic modifier such as 50 % methanol or DMSO, previously tested conditions; ref Negreira et al. ([2013b]); cited from earlier work
[3] = HPLC water with 4 % DMSO, ref Negreira et al. ([2013a]), cited from earlier work
[4] = milli-Q water, room temperature, natural pH; ref Franquet-Griell et al. [2017]; cited from earlier work
[5] = ref Gómez-Canela et al. [2015], cited from earlier work

For CN(Cc1nc2c(N)nc(N)nc2nc1O)c1ccc(C(=O)N[C@@H](CCC(=O)O)C(=O)O)cc1 [7-OH-MTX, 7-hydroxymethotrexate], the “Hydrolytic stability under ecotoxicological test conditions” value [1] is given as “hydrolytically stable”, the “Photolytic stability under ecotoxicological test conditions” value [1] is given as “susceptible to photolysis” and the half-life (physchem; aqueous buffer) is given as no less than 365 days. The “Hydrolytic stability in the preliminary test” value (physchem; 5 days) was “hydrolytically stable”, the “Degradation level in the preliminary test” value (physchem; pH 4, 50 °C, 5 days, dark) was 7% and the “Stability after acidification and with organic modifier” value [2] was “stable”. For the same molecule, the Remained intact ([3]; 4 °C, 24 h) was 86%, the “Concentration decreased to” value ([3]; 4 °C, after 9 days) was “around 50%” and the “Stability in 24 h test” value ([3]; 15 °C, 24 h) was “none of the 7-OH-MTX left in the solution”. The “Degradation level / loss” value ([3]; 25 °C, 24 h incubation) was “full degradation”.

With Cc1ccc(NC(=O)c2ccc(CN3CCN(C)CC3)cc2)cc1Nc1nccc(-c2cccnc2)n1 [IMT, imatinib] the “Hydrolytic stability in the preliminary test” value (physchem; 5 days) was “hydrolytically stable”.

For CCCCCOC(=O)Nc1nc(=O)n([C@@H]2O[C@H](C)[C@@H](O)[C@H]2O)cc1F [capecitabine], the “Hydrolytic stability in milli-Q water” value [4] is listed as “stable”.

For O=C(O)CCCc1ccc(N(CCCl)CCCl)cc1 [chlorambucil], the “Remaining part degraded within 24 h” value ([5]; hard water, initial concentration 10 ng μL^−1, within 24 h) is given as 19%, the “Transformed at the beginning of the test” value ([5]; hard water, initial concentration 10 ng μL^−1) is given as 81% and the “Transformation in hard water” value ([5]; initial concentration 2 ng μL^−1) is given as “instant and complete transformation”. For the same molecule, the “Hydrolytic stability in milli-Q water” value [4] was “highly unstable”.

In the case of COc1cccc2c1C(=O)c1c(O)c3c(c(O)c1C2=O)C[C@@](O)(C(C)=O)C[C@@H]3O[C@H]1C[C@H](N)[C@H](O)[C@H](C)O1 [daunorubicin], the “Hydrolytic stability in milli-Q water” value [4] is given as “highly unstable”.

For COc1cccc2c1C(=O)c1c(O)c3c(c(O)c1C2=O)C[C@@](O)(C(=O)CO)C[C@@H]3O[C@H]1C[C@H](N)[C@H](O)[C@H](C)O1 [doxorubicin], the “Hydrolytic stability in milli-Q water” value [4] is listed as “highly unstable”.

In the case of Nc1ccn([C@@H]2O[C@H](CO)[C@@H](O)C2(F)F)c(=O)n1 [gemcitabine], the “Hydrolytic stability in milli-Q water” value [4] is listed as “stable”.

In the case of CCc1c2c(nc3ccc(OC(=O)N4CCC(N5CCCCC5)CC4)cc13)-c1cc3c(c(=O)n1C2)COC(=O)[C@]3(O)CC [irinotecan], the “Hydrolytic stability in milli-Q water” value [4] is given as “highly unstable”.

For N[C@@H](Cc1ccc(N(CCCl)CCCl)cc1)C(=O)O [melphalan], the “Hydrolytic stability in milli-Q water” value [4] is given as “highly unstable”.

In the case of COc1c(C)c2c(c(O)c1C/C=C(\C)CCC(=O)O)C(=O)OC2 [mycophenolic acid], the “Hydrolytic stability in milli-Q water” value [4] is given as “stable”.

For CC[C@]1(O)C[C@H]2CN(CCc3c([nH]c4ccccc34)[C@@](C(=O)OC)(c3cc4c(cc3OC)N(C=O)[C@H]3[C@@](O)(C(=O)OC)[C@H](OC(C)=O)[C@]5(CC)C=CCN6CC[C@]43[C@@H]65)C2)C1 [vincristine], the “Hydrolytic stability in milli-Q water” value [4] is given as “highly unstable”.
